Measured values from patent US12065442B2, “Tropomyosin receptor kinase (TRK) degradation compounds and methods of use” (Cullgen (Shanghai), Inc., priority 2018, dated 2024).
“Also recorded” adds a separate entry of the source.

tested on: KM12 cells; experiment: Cell viability assay (CellTiter-Glo) in KM12 cells; type: cell-based; settings: 500 nM, 12-point 2-fold serial dilution, 3 days (FIG. 4A)

Row | Structure (SMILES) | viability of KM12 cells
1 | O=C1CCC(N2C(=O)c3cccc(NCCOCCOCCOCCC(=O)N4CCN(c5ccc(C(=O)Nc6n[nH]c7ccc(Cc8cc(F)cc(F)c8)cc67)c(NC6CCOCC6)c5)CC4)c3C2=O)C(=O)N1 (stereo not drawn) [CPD-057, N-(5-(3,5-Difluorobenzyl)-1H-indazol-3-yl)-4-(4-(3-(2-(2-(2-((2-(2,6-dioxopiperidin-3-yl)-1,3-dioxoisoindolin-4-yl)amino)ethoxy)ethoxy)ethoxy)propanoyl)piperazin-1-yl)-2-((tetrahydro-2H-pyran-4-yl)amino)benzamide] | inhibited the viability; also recorded: dose-dependently suppressed viability

same assay, conditions: Homo sapiens, 72 h; Table 2; KM12 cell viability, CellTiter-Glo, 3 days; read-out: IC50

Row | Structure (SMILES) | IC50
2 | Cc1ncsc1-c1ccc(CNC(=O)[C@@H]2C[C@@H](O)CN2C(=O)[C@@H](NC(=O)CCCCC(=O)N2CCN(c3ccc(C(=O)Nc4n[nH]c5ccc(Cc6cc(F)cc(F)c6)cc45)c(NC4CCOCC4)c3)CC2)C(C)(C)C)cc1 [CPD-044, (2S,4R)-1-((S)-2-(6-(4-(4-((5-(3,5-difluorobenzyl)-1H-indazol-3-yl)carbamoyl)-3-((tetrahydro-2H-pyran-4-yl)amino)phenyl)piperazin-1-yl)-6-oxohexanamido)-3,3-dimethylbutanoyl)-4-hydroxy-N-(4-(4-methylthiazol-5-yl)benzyl)pyrrolidine-2-carboxamide] | 73 nM
3 | Cc1ncsc1-c1ccc(CNC(=O)[C@@H]2C[C@@H](O)CN2C(=O)[C@@H](NC(=O)COCC(=O)N2CCN(c3ccc(C(=O)Nc4n[nH]c5ccc(Cc6cc(F)cc(F)c6)cc45)c(NC4CCOCC4)c3)CC2)C(C)(C)C)cc1 [CPD-045, (2S,4R)-1-((S)-2-(2-(2-(4-(4-((5-(3,5-Difluorobenzyl)-1H-indazol-3-yl)carbamoyl)-3-((tetrahydro-2H-pyran-4-yl)amino)phenyl)piperazin-1-yl)-2-oxoethoxy)acetamido)-3,3-dimethylbutanoyl)-4-hydroxy-N-(4-(4-methylthiazol-5-yl)benzyl)pyrrolidine-2-carboxamide] | > 1000 nM
4 | Cc1ncsc1-c1ccc(CNC(=O)[C@@H]2C[C@@H](O)CN2C(=O)[C@@H](NC(=O)CCC(=O)N2CCN(c3ccc(C(=O)Nc4n[nH]c5ccc(Cc6cc(F)cc(F)c6)cc45)c(NC4CCOCC4)c3)CC2)C(C)(C)C)cc1 [CPD-046, (2S,4R)-1-((S)-2-(4-(4-(4-((5-(3,5-Difluorobenzyl)-1H-indazol-3-yl)carbamoyl)-3-((tetrahydro-2H-pyran-4-yl)amino)phenyl)piperazin-1-yl)-4-oxobutanamido)-3,3-dimethylbutanoyl)-4-hydroxy-N-(4-(4-methylthiazol-5-yl)benzyl)pyrrolidine-2-carboxamide] | 700 nM
5 | Cc1ncsc1-c1ccc(CNC(=O)[C@@H]2C[C@@H](O)CN2C(=O)[C@@H](NC(=O)CCCCCC(=O)N2CCN(c3ccc(C(=O)Nc4n[nH]c5ccc(Cc6cc(F)cc(F)c6)cc45)c(NC4CCOCC4)c3)CC2)C(C)(C)C)cc1 [CPD-047, (2S,4R)-1-((S)-2-(7-(4-(4-((5-(3,5-difluorobenzyl)-1H-indazol-3-yl)carbamoyl)-3-((tetrahydro-2H-pyran-4-yl)amino)phenyl)piperazin-1-yl)-7-oxoheptanamido)-3,3-dimethylbutanoyl)-4-hydroxy-N-(4-(4-methylthiazol-5-yl)benzyl)pyrrolidine-2-carboxamide] | 94 nM
6 | Cc1ncsc1-c1ccc(CNC(=O)[C@@H]2C[C@@H](O)CN2C(=O)[C@@H](NC(=O)CCOCCC(=O)N2CCN(c3ccc(C(=O)Nc4n[nH]c5ccc(Cc6cc(F)cc(F)c6)cc45)c(NC4CCOCC4)c3)CC2)C(C)(C)C)cc1 [CPD-048, (2S,4R)-1-((S)-2-(3-(3-(4-(4-((5-(3,5-Difluorobenzyl)-1H-indazol-3-yl)carbamoyl)-3-((tetrahydro-2H-pyran-4-yl)amino)phenyl)piperazin-1-yl)-3-oxopropoxy)propanamido)-3,3-dimethylbutanoyl)-4-hydroxy-N-(4-(4-methylthiazol-5-yl)benzyl)pyrrolidine-2-carboxamide] | > 1000 nM
7 | O=C1CCC(N2C(=O)c3cccc(NCCCCCCC(=O)N4CCN(c5ccc(C(=O)Nc6n[nH]c7ccc(Cc8cc(F)cc(F)c8)cc67)c(NC6CCOCC6)c5)CC4)c3C2=O)C(=O)N1 (stereo not drawn) [CPD-049, N-(5-(3,5-difluorobenzyl)-1H-indazol-3-yl)-4-(4-(7-((2-(2,6-dioxopiperidin-3-yl)-1,3-dioxoisoindolin-4-yl)amino)heptanoyl)piperazin-1-yl)-2-((tetrahydro-2H-pyran-4-yl)amino)benzamide] | 73 nM
8 | O=C1CCC(N2C(=O)c3cccc(NCCCCC(=O)N4CCN(c5ccc(C(=O)Nc6n[nH]c7ccc(Cc8cc(F)cc(F)c8)cc67)c(NC6CCOCC6)c5)CC4)c3C2=O)C(=O)N1 (stereo not drawn) [CPD-050, N-(5-(3,5-difluorobenzyl)-1H-indazol-3-yl)-4-(4-(5-((2-(2,6-dioxopiperidin-3-yl)-1,3-dioxoisoindolin-4-yl)amino)pentanoyl)piperazin-1-yl)-2-((tetrahydro-2H-pyran-4-yl)amino)benzamide] | 28 nM
9 | O=C1CCC(N2C(=O)c3cccc(NCCC(=O)N4CCN(c5ccc(C(=O)Nc6n[nH]c7ccc(Cc8cc(F)cc(F)c8)cc67)c(NC6CCOCC6)c5)CC4)c3C2=O)C(=O)N1 (stereo not drawn) [CPD-051, N-(5-(3,5-difluorobenzyl)-1H-indazol-3-yl)-4-(4-(3-((2-(2,6-dioxopiperidin-3-yl)-1,3-dioxoisoindolin-4-yl)amino)propanoyl)piperazin-1-yl)-2-((tetrahydro-2H-pyran-4-yl)amino)benzamide] | 11 nM
10 | O=C1CCC(N2C(=O)c3cccc(NCCCCCCCC(=O)N4CCN(c5ccc(C(=O)Nc6n[nH]c7ccc(Cc8cc(F)cc(F)c8)cc67)c(NC6CCOCC6)c5)CC4)c3C2=O)C(=O)N1 (stereo not drawn) [CPD-052, N-(5-(3,5-difluorobenzyl)-1H-indazol-3-yl)-4-(4-(8-((2-(2,6-dioxopiperidin-3-yl)-1,3-dioxoisoindolin-4-yl)amino)octanoyl)piperazin-1-yl)-2-((tetrahydro-2H-pyran-4-yl)amino)benzamide] | 60 nM
11 | O=C1CCC(N2C(=O)c3cccc(NCCOCCOCCOCCOCCOCCC(=O)N4CCN(c5ccc(C(=O)Nc6n[nH]c7ccc(Cc8cc(F)cc(F)c8)cc67)c(NC6CCOCC6)c5)CC4)c3C2=O)C(=O)N1 (stereo not drawn) [CPD-054, N-(5-(3,5-difluorobenzyl)-1H-indazol-3-yl)-4-(4-(1-((2-(2,6-dioxopiperidin-3-yl)-1,3-dioxoisoindolin-4-yl)amino)-3,6,9,12,15-pentaoxaoctadecan-18-oyl)piperazin-1-yl)-2-((tetrahydro-2H-pyran-4-yl)amino)benzamide] | 13 nM
12 | O=C1CCC(N2C(=O)c3cccc(NCC(=O)N4CCN(c5ccc(C(=O)Nc6n[nH]c7ccc(Cc8cc(F)cc(F)c8)cc67)c(NC6CCOCC6)c5)CC4)c3C2=O)C(=O)N1 (stereo not drawn) [CPD-055, N-(5-(3,5-difluorobenzyl)-1H-indazol-3-yl)-4-(4-((2-(2,6-dioxopiperidin-3-yl)-1,3-dioxoisoindolin-4-yl)glycyl)piperazin-1-yl)-2-((tetrahydro-2H-pyran-4-yl)amino)benzamide] | 13 nM
13 | O=C1CCC(N2C(=O)c3cccc(NCCCCCC(=O)N4CCN(c5ccc(C(=O)Nc6n[nH]c7ccc(Cc8cc(F)cc(F)c8)cc67)c(NC6CCOCC6)c5)CC4)c3C2=O)C(=O)N1 (stereo not drawn) [CPD-056, N-(5-(3,5-difluorobenzyl)-1H-indazol-3-yl)-4-(4-(6-((2-(2,6-dioxopiperidin-3-yl)-1,3-dioxoisoindolin-4-yl)amino)hexanoyl)piperazin-1-yl)-2-((tetrahydro-2H-pyran-4-yl)amino)benzamide] | 12 nM
14 | O=C1CCC(N2C(=O)c3cccc(NCCOCCOCCOCCC(=O)N4CCN(c5ccc(C(=O)Nc6n[nH]c7ccc(Cc8cc(F)cc(F)c8)cc67)c(NC6CCOCC6)c5)CC4)c3C2=O)C(=O)N1 (stereo not drawn) [CPD-057, N-(5-(3,5-Difluorobenzyl)-1H-indazol-3-yl)-4-(4-(3-(2-(2-(2-((2-(2,6-dioxopiperidin-3-yl)-1,3-dioxoisoindolin-4-yl)amino)ethoxy)ethoxy)ethoxy)propanoyl)piperazin-1-yl)-2-((tetrahydro-2H-pyran-4-yl)amino)benzamide] | 6.4 nM
15 | Cc1ncsc1-c1ccc(CNC(=O)[C@@H]2C[C@@H](O)CN2C(=O)[C@@H](NC(=O)COCCOCCOCC(=O)N2CCN(c3ccc(C(=O)Nc4n[nH]c5ccc(Cc6cc(F)cc(F)c6)cc45)c(NC4CCOCC4)c3)CC2)C(C)(C)C)cc1 [CPD-058, (2S,4R)-1-((S)-2-(tert-butyl)-14-(4-(4-((5-(3,5-Difluorobenzyl)-1H-indazol-3-yl)carbamoyl)-3-((tetrahydro-2H-pyran-4-yl)amino)phenyl)piperazin-1-yl)-4,14-dioxo-6,9,12-trioxa-3-azatetradecanoyl)-4-hydroxy-N-(4-(4-methylthiazol-5-yl)benzyl)pyrrolidine-2-carboxamide] | > 1000 nM
16 | O=C(CN1CCN(c2cccc(-c3cnc4ccc(N5CCC[C@@H]5c5cccc(F)c5)nn34)n2)CC1)NCCOCCOCCOCCNc1cccc2c1C(=O)N(C1CCC(=O)NC1=O)C2=O (stereo partly drawn) [CPD-059, N-(2-(2-(2-(2-((2-(2,6-dioxopiperidin-3-yl)-1,3-dioxoisoindolin-4-yl)amino)ethoxy)ethoxy)-ethoxy)ethyl)-2-(4-(6-(6-((R)-2-(3-fluorophenyl)pyrrolidin-1-yl)imidazo[1,2-b]pyridazin-3-yl)pyridin-2-yl)piperazin-1-yl)acetamide] | 6 nM
17 | Cc1ncsc1-c1ccc(CNC(=O)[C@@H]2C[C@@H](O)CN2C(=O)[C@@H](NC(=O)CCCCCCCNC(=O)CN2CCN(c3ccc(C(=O)Nc4n[nH]c5ccc(Cc6cc(F)cc(F)c6)cc45)c(NC4CCOCC4)c3)CC2)C(C)(C)C)cc1 [CPD-061, (2S,4R)-1-((S)-2-(8-(2-(4-(4-((5-(3,5-Difluorobenzyl)-1H-indazol-3-yl)carbamoyl)-3-((tetrahydro-2H-pyran-4-yl)amino)phenyl)piperazin-1-yl)acetamido)octanamido)-3,3-dimethylbutanoyl)-4-hydroxy-N-(4-(4-methylthiazol-5-yl)benzyl)pyrrolidine-2-carboxamide] | > 1000 nM
18 | O=C(CN1CCN(c2ccc(C(=O)Nc3n[nH]c4ccc(Cc5cc(F)cc(F)c5)cc34)c(NC3CCOCC3)c2)CC1)NCCNc1cccc2c1C(=O)N(C1CCC(=O)NC1=O)C2=O (stereo not drawn) [CPD-062, N-(5-(3,5-difluorobenzyl)-1H-indazol-3-yl)-4-(4-(2-((2-((2-(2,6-dioxopiperidin-3-yl)-1,3-dioxoisoindolin-4-yl)amino)ethyl)amino)-2-oxoethyl)piperazin-1-yl)-2-((tetrahydro-2H-pyran-4-yl)amino)benzamide] | 29 nM
